Data on one compound can be found in the NIST ThermoML archive (doi:10.1016/j.jct.2009.05.019).

SMILES strings stand for the structures. ± gives the expanded uncertainty stated by the source.

The nature of this series: molar enthalpy of vaporization or sublimation. The note with it: 298.15 K; Crystal; Calvet microcalorimetry.

Take `c1ccc2c(c1)sc1ccccc12` [dibenzothiophene]: the molar enthalpy is 22.3 ± 0.239 kcal/mol.
